These results are taken from patent US7708999B2, “Remedies for arthritis” (Kyowa Hakko Kirin Co., Ltd., priority 2001, dated 2010).

The subject of assay [1] is mouse collagen-induced arthritis model. Kind of assay: Mouse collagen-induced arthritis model. It counts as in vivo. Particulars: positive control, 0.3 mg/mL, 1 mL per 100 g orally. The protocol: The mouse collagen-induced arthritis model was prepared in the following manner according to the method of Kamada et al., (Kamada H. et al., Jpn. J. Pharmacol., 70, 169-175, 1996) using DBA/1J mice (male, 7 weeks old, Japan Charles River).
A bovine cartilage-derived type II collagen solution (manufactured by Collagen Gijutsu Kenshu) was mixed with a Freund's complete adjuvant (manufactured by Iatron) under ice cooling to form an emulsion which was adjusted such that the final concentration of the type II collagen became 1.5 mg/mL. The emulsion was intradermally injected in amount of 100 μL at the base of the tail of the mouse for sensitization. Twenty-one days later, the additional immunization was performed in the same manner. One group consisted of 10 mice. Anti-FGF-8 neutralizing antibody KM1334 was dissolved in a saline (manufactured by Otsuka Seiyaku Kojo) to a final concentration of 2 mg/mL, and the solution was intraperitoneally administered to a KM1334 administrated group at a dose of 200 μL for each mouse once a day on days 21, 25, 28, 32, 35 and 39 from the initial sensitization of the mouse collagen-induced arthritis model. […] The change with time of edemas of all limbs in collagen-induced arthritis was evaluated by the scoring from 0 to 4 in each limb to a total of 16 at the maximum score in all limbs. […]

The test system of assay [2] is rat adjuvant arthritis model. Kind of assay: Rat adjuvant arthritis model. It counts as in vivo. On the procedure:
The rat adjuvant arthritis model was performed in the following manner according to the method of Pearson et al. (Pearson CM. et al., Arthritis Rheum., 5, 654-658, 1962) using Lewis rats (female, 8 weeks old, Japan Charles River).
Mycobacterium butyricum (manufactured by Difco) was suspended in a liquid paraffin (manufactured by Wako Pure Chemical Industries, Ltd.) to a final concentration of 6 mg/mL, and sterilized with a autoclave. The resulting solution was intradermally injected into the rat right hind pad in an amount of 100 μL for sensitization. One group consisted of 8 to 10 rats. Anti-FGF-8 neutralizing antibody KM1334 was dissolved in saline to a final concentration of 2 mg/mL. The solution was intraperitoneally administered to a KM1334 administrated group once a day at a dose of 0.5 mL per 100 g of the body weight for each rat on the sensitization day of the rat adjuvant arthritis model and on days 3, 7, 10, 14 and 17 from the sensitization. To saline administrated group, only saline was intraperitoneally administered instead of the anti-FGF-8 neutralizing antibody KM1334 solution. Further, sodium diclofenac, an antiinflammatory agent, was dissolved in a 0.5 w/v % methyl cellulose solution to a final concentration of 0.3 mg/mL, and the solution was orally administered to a sodium diclofenac administrated group as a positive control once a day at a dose of 1 mL per 100 g of the body weight on days 4, 7 to 11 and 14 to 18 from the adjuvant sensitization day. 50 mg of methotrexate® for injection (manufactured by Wyeth Japan) as a metabolic antagonist was dissolved in a 0.5 w/v % methyl cellulose solution to a final concentration of 0.01 mg/mL, and the solution was administered to a methotrexate administrated group in the same manner as in the sodium diclofenac administrated group. Prednisolone (manufactured by Sigma-Aldrich), a steroidal agent, was suspended in a 0.5 w/v % methyl cellulose solution to a final concentration of 0.3 mg/mL, and the suspension was administered to a prednisolone administrated group in the same manner as in the sodium diclofenac administrated group. Further, a 0.5 w/v % methyl cellulose solution alone was orally administered to a solvent administrated group in the same manner. An untreated group was used, and it was not subjected to sensitization with Mycobacterium butyricum and administration of an agent. The volumes of the adjuvant-treated paw and the adjuvant-untreated paw were measured as time goes by using a device for measuring edemas of rat hind paw (TK-101, manufactured by Unicom).
Using urine collected for 24 hours at day 20 and day 21 after the sensitization, the amounts of glycosaminoglycan, deoxypyridinoline, hydroxyproline and creatinine in urine were measured. The amount of glycosaminoglycan in urine was measured by the DMMB method described in Example 1. The amount of hydroxyproline in urine was measured by the method of Ikeda et al. (Ikeda Shingo et al., Tokyo Eiken Nenpo, 36 277-282, 1985). That is, 0.8 mL of hydrochloric acid for amino acid analysis (manufactured by Kanto Kagaku) was added to 0.8 mL of urine to hydrolyze at 110° C. for 15 hours. To 0.5 mL of the hydrolyzed sample was added 2 mL of a 1.2 mol/L sodium hydroxide solution for neutralization. 1 mL of isopropanol was added to 0.5 mL of the neutralized sample, and 1 ml of an oxidant solution was added. The mixture was stirred well, and allowed to stand at room temperature for 5 minutes. […]

Another assay addresses T1, FGF-8 (Homo sapiens, UniProt P55075).
T1 construct: purchased R & D
T1 sequence (P55075 23-215 isoform P55075-3 limits assumed): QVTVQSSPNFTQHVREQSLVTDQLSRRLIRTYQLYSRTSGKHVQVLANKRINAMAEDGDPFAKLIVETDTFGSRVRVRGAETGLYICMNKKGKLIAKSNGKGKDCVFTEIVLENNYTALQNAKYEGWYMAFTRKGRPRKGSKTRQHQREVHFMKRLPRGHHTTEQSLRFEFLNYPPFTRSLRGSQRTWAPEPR
The assay can be described thus: FGF-8 binding activity by BIAcore 2000, immobilized FGF-8. Particulars: antibody 50 μg/mL; FGF-8 immobilized 4498 RU. On the procedure: In order to examine the FGF-8 binding activity of the various anti-FGF-8 neutralizing CDR-grafted antibodies obtained in 4. of Reference Example 2 in more detail, the FGF-8 binding activity of the various anti-FGF-8 neutralizing CDR-grafted antibodies was measured and compared in the following manner using BIAcore2000 (manufactured by BIACORE). The YB2/0 cell-derived anti-FGF-8 neutralizing chimeric antibody KM3334 obtained in 3.(2) of Reference Example 1 was used as a positive control.
HBS-EP (manufactured by BIACORE) was used hereinafter as a sample diluent and a buffer during measurement. First, Sensor Chip CM5 (manufactured by BIACORE) was installed, and FGF-8 (manufactured by R & D) dissolved in 31.25 μg/mL of 10 mmol/L acetate buffer solution (pH 4.0) was immobilized on the surface of the sensor chip by the amine coupling method. The immobilization amount measured by using a resonance signal (RU) as an index was 4498 RU.
60 μL of each of the antibody solutions was added to an FGF-8 immobilized flow cell at a flow rate of 20 μL/min, and the dissociation reaction was then monitored for 3 minutes. After the dissociation reaction, 20 μL of a 10 mmol/L glycine-hydrochloride solution (pH 1.5) was added to the flow cell twice continuously to regenerate the surface of the chip. This cycle was performed with the antibody solution at various concentrations (from 50 to 0.068 μg/mL) to obtain sensor grams at various concentrations. The sensor grams of the respective antibodies were converted to sensor grams of specific reactions by deducing a sensor gram obtained using chimeric antibody KM871 (Shitara K. et al., Cancer Immunol. Immunother., 36, 373-380, 1993) to GD3 as a negative control. […] Accordingly, the binding activity of the various antibodies was compared in terms of the binding [resonance signal (RU)] in the binding reaction. […] The effect of restoring the binding activity was not observed in the 6 amino acid residues of FR of VH.

As to `O=C(O)Cc1ccccc1Nc1c(Cl)cccc1Cl` [sodium diclofenac], the “degree of the inhibition of the arthritic score compared with the KM1334 administrated group” value in assay [1] is recorded as “the same”. The Bone destruction score in assay [2] (Table 2, soft X-ray of calcaneus, adjuvant-untreated paw, day 21, maximum 5, mean ± standard error, oral comparators) is listed as 3.1 ± 0.6. Moreover, the “Bone destruction score (% inhibition)” value in assay [2] (Table 2, vs solvent group) is recorded as 33%. Moreover, the “inhibition of the increase in paw volume, adjuvant-untreated paw” value in assay [2] (day 21, oral, 1 mL per 100 g: sodium diclofenac 0.3 mg/mL, methotrexate 0.01 mg/mL, prednisolone 0.3 mg/mL, vs solvent group) worked out at 45%. For the same molecule, in assay [2] (urine day 20 to 21, oral comparators vs solvent group, diclofenac and prednisolone not significant), the “inhibition of the increase (decrease) in amount of glycosaminoglycan in urine” value turned out to be 40%. Further, in assay [2] (urine day 20 to 21, oral comparators vs solvent group, methotrexate and prednisolone not significant), the “inhibition of the increase (decrease) in amount of deoxypyridinoline in urine” value came out at 88%.

B1: HV0LV0: YB2/0 cell-derived anti-FGF-8 neutralizing CDR-grafted antibody, VH HV.0 (SEQ ID NO. 18), VL LV.0 (SEQ ID NO. 19) (antibody, V domains shown)
VH: QVQLVQSGAEVKKPGASVKVSCKASGYTFTDYYLNWVRQAPGQGLEWMGEIDPGSDSIYYNENLEGRVTITADTSTSTAYMELSSLRSEDTAVYYCARYGYSRYDVRFVYWGQGTLVTVSS
VL: DIVMTQSPLSLPVTPGEPASISCRSSQSLVHSNGRTYLEWYLQKPGQSPQLLIYKVSNRISGVPDRFSGSGSGTDFTLKISRVEAEDVGVYYCFQGSHVPYTFGQGTKVEIK
modifications: HV.0, a designed amino acid sequence of VH of an anti-FGF-8 CDR-grafted neutralizing antibody; LV.0, a designed amino acid sequence of VL of an anti-FGF-8 CDR-grafted neutralizing antibody
With B1, the “binding reaction [resonance signal (RU)]” value with FGF-8 is “slightly low in comparison to KM3334 and HV0LV6”.

B2: HV6LV6: YB2/0 cell-derived anti-FGF-8 neutralizing CDR-grafted antibody, VH HV.6 (SEQ ID NO. 20), VL LV.6 (SEQ ID NO. 21) (antibody, V domains shown)
VH: QVQLVQSGAEVARPGASVKVSCKASGYTFTDYYLNWVRQRSGQGLEWIGEIDPGSDSIYYNENLEGRVTITADTSTSTAYMELSSLRSEDTAVYFCARYGYSRYDVRFVYWGQGTLVTVSS
VL: DVVMTQSPLSLPVSLGEPASISCRSSQSLVHSNGRTYLEWYLQKPGQSPKVLIYKVSNRISGVPDRFSGSGSGTDFTLKISRVEAEDVGVYFCFQGSHVPYTFGQGTKVEIK
modifications: HV.6, a designed amino acid sequence of VH of an anti-FGF-8 CDR-grafted neutralizing antibody; LV.6, a designed amino acid sequence of VL of an anti-FGF-8 CDR-grafted neutralizing antibody
For the molecule B2, in the assay with FGF-8, the “binding reaction [resonance signal (RU)]” value was “slightly low in comparison to KM3334 and HV0LV6”.
